# Experimental data reported in paper PMC7767381, “Exploring the Anti-Cancer Mechanism of Novel 3,4′-Substituted Diaryl Guanidinium Derivatives” (Pharmaceuticals, 2020).
# Entries after “also recorded” stand apart in the source; their conditions may differ.
# Test system: ERK phosphorylation (MAPK/ERK pathway)
# Assay: Western immunoblot of ERK phosphorylation in HL-60 extracts
# Format: cell-based, human
# Conditions: HL-60, 5 µM, 16 h
# Protocol: Thus, using Western immunoblot analysis of HL-60 extracts, we investigated the expression and phosphorylation levels of ERK (as an indication of ERK activation), which is the downstream effector of the Ras/BRAF signalling pathway (Figure 6).
# HL60s were seeded in T25 flasks at 50 × 10^4 cells/mL and cells were treated with either vehicle [0.5% EtOH (v/v)], 1–4, 9 or 52 (5 µM), as well as 1 (10 µM as reported). After 16 h, cells were collected and washed with PBS. Cell pellets were re-suspended in cold cell lysis buffer (radio-immunoprecipitation assay buffer) supplemented with 1% phosphatase inhibitor cocktail 2 and 3 (Sigma) and 10% protease inhibitor (Roche). Cells were lysed for 30 min on ice. Protein concentration was then determined by BCA assay. Lysates were boiled with Laemmli sample buffer [Tris-HCL 50 mM (pH 6.7), glycerol 10% (w/v), sodium dodecyl sulphate 2% (w/v), bromophenol blue 0.02% (w/v)] containing DTT […] for 10 min at 90 °C. Moreover, 20 µg of lysates were resolved by sodium dodecyl sulphate polyacrylamide gel electrophoresis (SDS-PAGE) and transferred onto PVDF transfer membrane (EMD Millipore). Membranes were blocked with 5% non-fat milk and probed with primary antibodies for ERK and phospho-ERK (Cell Signalling). Anti-GAPDH was used as a loading control (Calbiochem).
# Figure 6 Western immunoblot of HL-60 cell extracts following incubation with compounds 2, 3, 4, 9, 52 and 1 (as a control). HL60 cells were seeded at 2 × 10^5 cells/mL and were treated with either vehicle [0.5% EtOH (v/v)], compounds 52, 2, 9, 3 and 4 (5 µM) or compound 1 (5 and (*) 10 µM, as in reference) for 16 h. Cells were lysed and equal amounts of protein were loaded and separated on 15% SDS-PAGE gels, transferred to PVDF membrane and probed with antibodies against total and phosphorylated ERK. Anti-GAPDH was used as a loading control. Results are representative of 2 independent experiments.
# HL-60 cells were seeded in T25 flasks at 50 x10^4 cells/mL and treated with either vehicle [0.5% […]
# After 16 hours, cells were […]
# collected and washed with PBS. Cell pellets were re-suspended in cold cell lysis buffer (radio-immunoprecipitation assay buffer) supplemented with 1% phosphatase inhibitor cocktail 2 and 3 (Sigma) and 10% protease inhibitor (Roche). Cells were lysed for 30 minutes on ice.
# Protein concentration was then determined by BCA assay. Lysates were boiled with laemmli sample buffer [Tris-HCL 50 mM (pH 6.7), glycerol 10% (w/v), sodium dodecyl sulphate 2% (w/v), bromophenol blue 0.02% (w/v)] containing DTT […] for 10 min. at 90 °C. Also 20 µg of lysates were resolved by sodium dodecyl sulphate polyacrylamide gel electrophoresis (SDS - PAGE) and transferred onto PVDF transfer membrane (EMD Millipore). Membranes were blocked with 5% non-fat milk and probed with primary antibodies for ERK and phospho-ERK (Cell Signaling). Anti-GAPDH was used as a loading control (Calbiochem).
row,SMILES,effect on ERK phosphorylation (Ras/BRAF pathway)
1,"Cl.Cl.N=C(N)Nc1ccc(Oc2cccc(NC(=N)Nc3ccc(Cl)c(C(F)(F)F)c3)c2)cn1 [Compound 2, 1-(4-Chloro-3-(trifluoromethyl)phenyl)-3-(3-((6-guanidinopyridin-3-yl)oxy)phenyl) guanidine dihydrochloride]",inhibiting ERK phosphorylation; also recorded: abrogates ERK activation
2,"Cl.N=C(N)Nc1ccc(Oc2cccc(Nc3ccc(Cl)c(C(F)(F)F)c3)c2)cc1 [Compound 3, 1-(4-(3-((4-Chloro-3-(trifluoromethyl)phenyl)amino)phenoxy)phenyl)guanidine hydrochloride]",do not appear to interfere with the Ras/BRAF signalling pathway; also recorded: do not act in the same way
3,"Cl.N=C(N)Nc1ccc(Oc2cccc(Nc3ccc(Cl)c(C(F)(F)F)c3)c2)cn1 [Compound 4, 1-(5-(3-((4-Chloro-3-(trifluoromethyl)phenyl)amino)phenoxy)pyridin-2-yl)guanidine hydrochloride]",do not appear to interfere with the Ras/BRAF signalling pathway; also recorded: do not act in the same way
